In patent US10537103B2, “Antibacterial composition containing an isomer mixture of monosaccharide alkyl monoacetals or monoethers” (TEREOS STARCH & SWEETENERS BELGIUM, priority 2014, dated 2020):
≈ marks a conversion by molar mass, not a printed value.

Legend:
[1] = test system: L. monocytogenes (CIP 103575); assay: Minimum inhibitory concentration (MIC), 96-well microplate microdilution; type: cell-based; conditions: Listeria monocytogenes, CIP103575, 18 h at 37° C.
Method: (§1) The bacteriostatic properties of the derivatives are evaluated by measuring their minimum inhibitory concentration (MIC) on the bacteria tested. These measurements are made using the 96-well microplate microdilution method according to the conditions defined below.
(§2) The minimum inhibitory concentrations (MIC) are tested on Gram-positive bacterial strains according to the recommendations of the “Clinical Laboratory Standards Institute” (Clinical-Laboratory-Standards-Institute, 6th ed. Approved standard M100-S17. CLSI, Wayne, Pa., 2007).
(§3) The Gram-positive bacteria studied are as follows: L. monocytogenes (CIP 103575), E. faecalis (ATCC® 29212™) and S. aureus (ATCC® 292213™).
(§4) The cultures studied, freshly isolated (after incubation on a blood agar at 37° C. for 18 h), are taken up in sterile water (10 mL) until obtaining a 0.5 McFarland (Mc) suspension i.e. 1 to 2×10^8 CFU (bacteria)/cm^3. The bacterial suspension was then diluted to obtain a final concentration of 5×10^5 CFU/cm^3.
(§5) Each well contains an identical quantity of Mueller-Hinton medium (a rich medium for bacterial culture) and bacteria with final 5×10^5 CFU/cm^3.
(§6) The test compounds of interest are solubilized in 2.5% m of ethanol before being diluted to different concentrations two by two.
(§7) On the multiwell plate, a first series has been planned comprising the culture medium without the test compound of interest. It corresponds to the growth control (control well). These controls serve as reference for comparing bacterial growth with that of the subsequent wells comprising different concentrations of the test compound of interest. The second series of wells comprises the mother solution for the test compound of interest for a concentration in the wells of 4 mM. Each series of wells was diluted two by two until the last series for a final concentration of 0.003 mM. Each concentration is duplicated in the same plate. The plate is incubated for 18 h at 37° C. […] If there is antibacterial activity, the bacterial growth is inhibited, which means that no turbidity or bacterial residue is present.
(§8) Tests have been conducted on Gram-positive bacteria with methyl glucopyranoside derivatives. […] After sterilization the solutions are diluted in water. […] Because precipitates formed in the solutions, the effect of these methyl glucopyranoside C10 and C12 acetals was not able to be evaluated. The results obtained for antimicrobial tests on the 3 bacterial strains L. monocytogenes (CIP 103575), E. faecalis (ATCC® 29212) and S. aureus (ATCC® […]) are summarized in Table 1.
(§9) The sorbitan C5, C6, C8, C10 and C12 acetals and ethers were then tested under the same conditions as previously and on the same bacterial strains (see example 5).

E. faecalis (ATCC 29212) = assay: as above; type: cell-based; conditions: 18 h at 37° C.; for MIC: Enterococcus faecalis, ATCC29212, 18 h
Method: as §1, §2, §3, §4, §5, §6, §7, §8, §9

S. aureus (ATCC 292213) = assay: as above; type: cell-based; conditions: Staphylococcus aureus, ATCC292213, 18 h at 37° C.
Method: as §1, §2, §3, §4, §5, §6, §7, §8, §9

[2] = Water solubility of test solutions; type: physicochemical; conditions: solutions diluted in water, 2.5% m ethanol; precipitates formed
Method: as §8

S. aureus = conditions: cited from earlier work
L. monocytogenes = conditions: cited from earlier work
[3] = test system: Gram-positive bacteria (L. monocytogenes, E. faecalis, S. aureus); assay: MIC / antimicrobial activity stated for the Gram-positive strains studied together; type: cell-based; conditions: concentrations less than or equal to 4 mM
Method: as §1, §2, §3, §4
Each well contains an identical quantity of Mueller-Hinton medium (a rich medium for bacterial culture) and bacteria with final 5×10^5 CFU/cm^3. […]
Tests have been conducted on Gram-positive bacteria with methyl glucopyranoside derivatives. […] Because precipitates formed in the solutions, the effect of these methyl glucopyranoside C10 and C12 acetals was not able to be evaluated. […]

Row | MIC [1] | MIC (E. faecalis (ATCC 29212)) | MIC (S. aureus (ATCC 292213)) | melting point | SMILES | also measured
1 | > 4 mM | > 4 mM | > 4 mM |  | CCCCC1OCC2O[C@H](OC)C(O)C(O)[C@@H]2O1 (stereo partly drawn) [Compound 1a, Methyl 4,6-O-pentylidene α-D-glucopyranoside] | 
2 | > 4 mM | > 4 mM | > 4 mM |  | CCCCCC1OCC2O[C@H](OC)C(O)C(O)[C@@H]2O1 (stereo partly drawn) [Compound 1b, Methyl 4,6-O-Hexylidene α-D-glucopyranoside] | 
3 | 2 mM (≈ 609 µg/mL) | 2 mM (≈ 609 µg/mL) | 4 mM (≈ 1220 µg/mL) |  | CCCCCCCC1OCC2O[C@H](OC)C(O)C(O)[C@@H]2O1 (stereo partly drawn) [Compound 1c, Methyl 4,6-O-Octylidene α-D-glucopyranoside] | Minimum inhibitory concentration (MIC) E. faecalis (E. faecalis (ATCC 29212); listed as AcC8 MeGlu): 4 mM (≈ 1220 µg/mL)
4 |  |  |  | 72 °C | CCCCCCCCCC1OCC2O[C@H](OC)C(O)C(O)[C@@H]2O1 (stereo partly drawn) [Compound 1d, Methyl 4,6-O-Decylidene α-D-glucopyranoside] | water solubility [2]: low water solubility
5 |  |  |  | 104 °C | CCCCCCCCCCCC1OCC2O[C@H](OC)C(O)C(O)[C@@H]2O1 (stereo partly drawn) [Compound 1g, Methyl 4,6-O-Dodecylidene α-D-mannopyranoside] | 
6 |  |  |  | 115 °C | CCCCCCCCCCCC1OCC2O[C@H](OC)C(O)C(O)[C@H]2O1 (stereo partly drawn) [Compound 1h, Methyl 4,6-O-Dodecylidene α-D-galactopyranoside] | 
7 |  |  |  |  | CCCCCCCCCCCC(=O)OCC(O)CO (centres unmarked) [ML, monolaurine] | Minimum inhibitory concentration (MIC) S. aureus, compounds known in the prior art (S. aureus): 0.04 mM (≈ 11 µg/mL); Minimum inhibitory concentration (MIC) L. monocytogenes, compounds known in the prior art (L. monocytogenes): 0.04 mM (≈ 11 µg/mL)
8 |  |  |  |  | CCCCCCCCCCCC=O [dodecanal] | antimicrobial activity on the different bacterial strains [3]: no antimicrobial activity
